In patent US10168342B2, “Lipid probes and uses thereof” (THE SCRIPPS RESEARCH INSTITUTE, priority 2015, dated 2019):
Like-named read-outs stand apart in the source and are kept apart here.

How the values were obtained:
[1] = molecular target: T1, AEA-DA lipid probe targets in Neuro2a cells (Mus musculus, UniProt O35114)
T1 sequence (O35114 1-478): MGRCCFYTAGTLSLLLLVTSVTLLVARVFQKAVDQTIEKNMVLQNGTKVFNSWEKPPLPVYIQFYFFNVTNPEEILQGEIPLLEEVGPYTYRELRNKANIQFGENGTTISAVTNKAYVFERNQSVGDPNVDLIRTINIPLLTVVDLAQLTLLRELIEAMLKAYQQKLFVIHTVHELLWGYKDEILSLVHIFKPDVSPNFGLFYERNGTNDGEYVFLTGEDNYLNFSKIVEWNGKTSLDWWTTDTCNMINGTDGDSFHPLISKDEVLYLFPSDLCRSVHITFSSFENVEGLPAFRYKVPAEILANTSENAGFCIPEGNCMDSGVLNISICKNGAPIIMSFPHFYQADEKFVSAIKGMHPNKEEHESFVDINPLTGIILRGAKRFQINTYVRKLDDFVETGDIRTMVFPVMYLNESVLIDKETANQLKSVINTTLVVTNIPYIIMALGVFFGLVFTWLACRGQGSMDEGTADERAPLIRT

[2] = molecular target: T2, AEA-DA lipid probe targets in Neuro2a cells (Mus musculus, UniProt O70252); conditions: for SILAC ratio, HMOX2 (P30519): Neuro2a cells, AEA-DA probe
T2 sequence (O70252 1-315): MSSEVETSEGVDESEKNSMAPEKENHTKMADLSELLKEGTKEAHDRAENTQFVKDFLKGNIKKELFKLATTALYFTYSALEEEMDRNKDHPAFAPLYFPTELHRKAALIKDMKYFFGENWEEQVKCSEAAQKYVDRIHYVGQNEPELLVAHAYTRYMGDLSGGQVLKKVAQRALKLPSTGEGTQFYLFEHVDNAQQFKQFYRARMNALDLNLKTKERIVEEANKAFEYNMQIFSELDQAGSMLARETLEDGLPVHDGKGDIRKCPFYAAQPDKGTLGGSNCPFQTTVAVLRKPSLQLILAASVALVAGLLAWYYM

[3] = molecular target: T3, AEA-DA lipid probe targets in Neuro2a cells (Mus musculus, UniProt P22315)
T3 sequence (P22315 54-422): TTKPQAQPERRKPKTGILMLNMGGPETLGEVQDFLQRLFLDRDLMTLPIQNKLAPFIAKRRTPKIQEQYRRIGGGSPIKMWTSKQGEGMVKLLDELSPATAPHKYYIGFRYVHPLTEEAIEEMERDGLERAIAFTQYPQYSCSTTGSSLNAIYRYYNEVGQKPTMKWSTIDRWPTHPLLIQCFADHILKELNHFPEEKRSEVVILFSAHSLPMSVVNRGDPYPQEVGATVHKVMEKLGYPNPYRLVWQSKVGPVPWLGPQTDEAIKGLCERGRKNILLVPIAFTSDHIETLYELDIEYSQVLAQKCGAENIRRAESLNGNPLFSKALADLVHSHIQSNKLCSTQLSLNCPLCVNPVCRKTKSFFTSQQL

[4] = molecular target: T4, AEA-DA lipid probe targets in Neuro2a cells (Mus musculus, UniProt Q61009)
T4 sequence (Q61009 1-509): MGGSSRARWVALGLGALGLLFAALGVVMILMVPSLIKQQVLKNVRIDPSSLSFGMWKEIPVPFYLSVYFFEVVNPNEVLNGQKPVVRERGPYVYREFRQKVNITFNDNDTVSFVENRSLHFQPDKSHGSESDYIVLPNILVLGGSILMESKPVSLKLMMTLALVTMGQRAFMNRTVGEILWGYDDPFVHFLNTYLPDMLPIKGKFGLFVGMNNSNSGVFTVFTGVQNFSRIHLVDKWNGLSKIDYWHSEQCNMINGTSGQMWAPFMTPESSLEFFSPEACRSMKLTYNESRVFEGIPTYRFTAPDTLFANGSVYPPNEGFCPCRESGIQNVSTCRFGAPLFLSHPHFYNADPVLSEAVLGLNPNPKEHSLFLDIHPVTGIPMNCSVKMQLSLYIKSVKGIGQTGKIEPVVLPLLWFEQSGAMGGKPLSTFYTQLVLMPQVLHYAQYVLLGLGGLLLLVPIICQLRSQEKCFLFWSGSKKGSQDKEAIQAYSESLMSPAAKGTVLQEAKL

[5] = molecular target: T5, AEA-DA lipid probe targets in Neuro2a cells (Mus musculus, UniProt Q80UU9); conditions: for SILAC ratio, PGRMC2 (Q80UU9): Neuro2a cells, AEA-DA probe
T5 sequence (Q80UU9 1-217): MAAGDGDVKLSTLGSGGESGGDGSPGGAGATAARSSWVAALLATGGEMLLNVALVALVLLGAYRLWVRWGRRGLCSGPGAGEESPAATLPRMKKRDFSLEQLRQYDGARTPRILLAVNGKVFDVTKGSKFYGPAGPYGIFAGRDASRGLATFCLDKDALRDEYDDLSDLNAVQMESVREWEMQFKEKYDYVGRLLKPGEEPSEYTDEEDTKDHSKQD

[6] = molecular target: T6, AEA-DA lipid probe targets in Neuro2a cells (Mus musculus, UniProt Q99L04)
T6 sequence (Q99L04 1-313): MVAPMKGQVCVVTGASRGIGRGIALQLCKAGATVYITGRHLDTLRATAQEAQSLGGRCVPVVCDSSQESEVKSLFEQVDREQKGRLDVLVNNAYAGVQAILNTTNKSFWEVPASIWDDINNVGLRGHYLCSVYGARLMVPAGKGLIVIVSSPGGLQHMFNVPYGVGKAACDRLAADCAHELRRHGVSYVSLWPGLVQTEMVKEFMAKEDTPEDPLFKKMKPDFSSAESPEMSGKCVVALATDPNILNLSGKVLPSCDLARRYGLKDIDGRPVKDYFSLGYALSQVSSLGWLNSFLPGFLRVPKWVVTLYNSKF

[7] = molecular target: T7, AEA-DA lipid probe targets in Neuro2a cells (Mus musculus, UniProt Q9Z2Z6)
T7 sequence (Q9Z2Z6 1-301): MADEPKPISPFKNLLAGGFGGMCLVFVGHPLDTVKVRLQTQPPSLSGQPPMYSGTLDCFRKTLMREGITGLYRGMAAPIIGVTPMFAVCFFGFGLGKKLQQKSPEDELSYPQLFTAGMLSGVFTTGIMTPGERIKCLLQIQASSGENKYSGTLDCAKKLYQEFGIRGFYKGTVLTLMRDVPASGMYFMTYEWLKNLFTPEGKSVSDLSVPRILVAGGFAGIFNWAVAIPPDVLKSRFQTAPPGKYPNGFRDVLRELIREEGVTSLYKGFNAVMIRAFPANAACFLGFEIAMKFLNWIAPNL

CCCCC/C=C\C/C=C\C/C=C\C/C=C\CCCC(=O)NCCO [AEA, anandamide, reference compound]
SILAC ratio Scarb2 ([1]; competitor 200 μM): 1.5
SILAC ratio, HMOX2 (P30519) ([2]; competitor 200 μM): 3.2
SILAC ratio, Hmox2 ([2]; competitor 200 μM): 3.2
SILAC ratio, Fech ([3]; competitor 200 μM): 1.3
SILAC ratio, Scarb1 ([4]; competitor 200 μM): 1.6
SILAC ratio, PGRMC2 (Q80UU9) ([5]; competitor 200 μM): 2.0
SILAC ratio, Pgrmc2 ([5]; competitor 200 μM): 2.0
SILAC ratio, Dhrs1 ([6]; competitor 200 μM): 18.4
SILAC ratio Slc25a20 ([7]; competitor 200 μM): 1.6

O=C(/C=C/c1cccnc1)NCCCCC1CCN(C(=O)c2ccccc2)CC1 [FK-866, reference compound]
SILAC ratio Scarb2 ([1]; competitor 25 μM): 1.1
SILAC ratio, HMOX2 (P30519) ([2]; competitor 25 μM): 1.0
SILAC ratio, Hmox2 ([2]; competitor 25 μM): 1.0
SILAC ratio, Fech ([3]; competitor 25 μM): 20.0
SILAC ratio, Scarb1 ([4]; competitor 25 μM): 2.3
SILAC ratio, PGRMC2 (Q80UU9) ([5]; competitor 25 μM): 1.2
SILAC ratio, Pgrmc2 ([5]; competitor 25 μM): 1.2
SILAC ratio, Dhrs1 ([6]; competitor 25 μM): 8.0
SILAC ratio Slc25a20 ([7]; competitor 25 μM): 1.4

CN1CCN(C(=O)c2c(-c3ccccc3)c3cc([N+](=O)[O-])ccc3n2C)CC1 [KML110, (1-Methyl-5-nitro-3-phenyl-1H-indol-2-yl)(4-methylpiperazin-1-yl)methanone]
SILAC ratio Scarb2 ([1]; competitor 25 μM): 1.3
SILAC ratio, Hmox2 ([2]; competitor 25 μM): 1.5
SILAC ratio, Fech ([3]; competitor 25 μM): 2.2
SILAC ratio, Scarb1 ([4]; competitor 25 μM): 2.8
SILAC ratio, Pgrmc2 ([5]; competitor 25 μM): 1.6
SILAC ratio, Dhrs1 ([6]; competitor 25 μM): 2.7
SILAC ratio Slc25a20 ([7]; competitor 25 μM): 1.5

CN1CCN(C(=O)c2[nH]c3ccc([N+](=O)[O-])cc3c2-c2ccccc2)CC1 [MJN228, (4-Methylpiperazin-1-yl)(5-nitro-3-phenyl-1H-indol-2-yl)methanone]
SILAC ratio Scarb2 ([1]; competitor 10 μM): 1.3
SILAC ratio Scarb2 ([1]; competitor 25 μM): 1.5
SILAC ratio Scarb2 ([1]; competitor 50 μM): 1.7
SILAC ratio Scarb2 ([1]; competitor 100 μM): 1.9
SILAC ratio, HMOX2 (P30519) ([2]; competitor 25 μM): 1.4
SILAC ratio, Hmox2 ([2]; competitor 10 μM): 1.1
SILAC ratio, Hmox2 ([2]; competitor 25 μM): 1.4
SILAC ratio, Hmox2 ([2]; competitor 50 μM): 1.3
SILAC ratio, Hmox2 ([2]; competitor 100 μM): 1.7
SILAC ratio, Fech ([3]; competitor 10 μM): 1.0
SILAC ratio, Fech ([3]; competitor 25 μM): 2.4
SILAC ratio, Fech ([3]; competitor 50 μM): 3.0
SILAC ratio, Fech ([3]; competitor 100 μM): 2.9
SILAC ratio, Scarb1 ([4]; competitor 10 μM): 1.6
SILAC ratio, Scarb1 ([4]; competitor 25 μM): 2.0
SILAC ratio, Scarb1 ([4]; competitor 50 μM): 3.2
SILAC ratio, Scarb1 ([4]; competitor 100 μM): 4.9
SILAC ratio, PGRMC2 (Q80UU9) ([5]; competitor 25 μM): 1.5
SILAC ratio, Pgrmc2 ([5]; competitor 10 μM): 1.2
SILAC ratio, Pgrmc2 ([5]; competitor 25 μM): 1.5
SILAC ratio, Pgrmc2 ([5]; competitor 50 μM): 1.7
SILAC ratio, Pgrmc2 ([5]; competitor 100 μM): 2.0
SILAC ratio, Dhrs1 ([6]; competitor 10 μM): 1.4
SILAC ratio, Dhrs1 ([6]; competitor 25 μM): 1.8
SILAC ratio, Dhrs1 ([6]; competitor 50 μM): 2.4
SILAC ratio, Dhrs1 ([6]; competitor 100 μM): 4.4
SILAC ratio Slc25a20 ([7]; competitor 10 μM): 1.4
SILAC ratio Slc25a20 ([7]; competitor 25 μM): 1.4
SILAC ratio Slc25a20 ([7]; competitor 50 μM): 2.4
SILAC ratio Slc25a20 ([7]; competitor 100 μM): 3.4

C=CCN(C)CCCCCCOc1ccc(C(=O)c2ccc(Br)cc2)c(F)c1 [Ro 48-8071, reference compound]
SILAC ratio Scarb2 ([1]; competitor 25 μM): 1.1
SILAC ratio, HMOX2 (P30519) ([2]; competitor 25 μM): 1.3
SILAC ratio, Hmox2 ([2]; competitor 25 μM): 1.3
SILAC ratio, Fech ([3]; competitor 25 μM): 1.4
SILAC ratio, Scarb1 ([4]; competitor 25 μM): 2.9
SILAC ratio, PGRMC2 (Q80UU9) ([5]; competitor 25 μM): 1.3
SILAC ratio, Pgrmc2 ([5]; competitor 25 μM): 1.3
SILAC ratio, Dhrs1 ([6]; competitor 25 μM): 9.5
SILAC ratio Slc25a20 ([7]; competitor 25 μM): 1.2
